US9220775B2, “Binding molecules specific for HER3 and uses thereof” (Medlmmune LLC, priority 2011, dated 2015)

Columns and labels:
[1] = tested on: HER3, pHER3 and pAKT in SW620, SW480, Colo205, LOVO, HCT15 and Caco-2 cells; assay: HRG ligand-dependent signaling in CRC tumor cell lines (Western blot); format: cell-based, human; conditions: antibodies 10 μg/mL, gefitinib 5 μM, HRG 50 ng/mL
Description: In the presence of the HER3 ligand heregulin (HRG), HER3 heterodimerizes with EGFR or HER2, which leads to phosphorylation of HER3 and transmission of an oncogenic signal via phosphoinositide 3 kinase (PI3K) and protein kinase B (PKB), also known as AKT. A collection of CRC models were characterized to determine which receptor tyrosine kinase, EGFR or HER2, is the major driver of signaling through HER3. […] Briefly, cells were seeded into 24-well plates at a density of 1.5×10^5 cells per well. […] After 5-6 hours of incubation at 37° C., HRG was added at 50 ng/mL into one set of cells for 15 minutes at 37° C. All cells were then washed with cold PBS and lysed by the addition of 60 μL of 2×SDS (sodium dodecyl sulfate) sample buffer (Invitrogen). Lysates were transferred to 1.5 mL tubes and boiled for 5 minutes followed by chilling on ice for 2 minutes. Equal volumes (20 μL) of protein samples were resolved in NuPAGE Novex Bis-Tris gels (Invitrogen) before transfer to polyvinylidene fluoride (PVDF) membranes (Invitrogen). […] After washing, protein bands were detected on X-ray film by using SuperSignal West Pico Chemiluminescent Substrate (Pierce/Thermo Scientific).

[2] = tested on: BT-474 xenograft tumors; assay: Orthotopic human BT-474 breast cancer xenograft model; format: in vivo, mouse; conditions: antibodies 30 mg/kg, lapatinib 100 mg/kg oral
Description: (§1) Orthotopic xenografts were established by injecting 1×10^7 cells per mouse (suspended in 50% matrigel) into the mammary fat pad on the right flank of 4 to 6-week-old athymic nu/nu mice. Estrogen pellets (0.36 mg) were placed under the skin of the left flank 1-2 days before cell injection. […] Lapatinib was administered by oral gavaging at 100 mg per kilogram body weight. Caliper measurements were used to calculate tumor volumes using the formula: tumor volume=π÷6(length×width×width) • for tumors grown in mice.

[3] = tested on: MDA-MB-361 xenograft tumors; assay: Orthotopic human MDA-MB-361 breast cancer xenograft model; format: in vivo, mouse; conditions: 2C2-YTE 30 mg/kg, trastuzumab and rhuMAb 2C4 10 mg/kg, lapatinib 100 mg/kg twice daily
Description: as §1, with “5×10^6” for “1×10^7”

[4] = tested on: MCF-7 xenograft tumors; assay: Orthotopic human MCF-7 breast cancer xenograft model; format: in vivo, mouse; conditions: antibodies 10 mg/kg, paclitaxel 10 mg/kg i.v. every second day for ten days
Description: as §1, with “Human MCF-7 breast cancer cells were maintained at 37° C. in a 5% CO2 incubator in Optimem medium containing glutamax, 2.4/L sodium bicarbonate, Hepes and 5% fetal bovine serum. Orthotopic” for “Orthotopic”, “5×10^6” for “1×10^7”, “Paclitaxel” for “Lapatinib”, “intravenously” for “by oral gavaging”, “10” for “100”

[5] = tested on: SkBR3 cells; assay: CDC assay with human serum as source of complement; format: cell-based; conditions: any concentration, data not shown
Source text: ADCC is one recognized way through which a monoclonal antibody can confer its anti-tumor efficacy in vivo.

[6] = tested on: Daudi cells; assay: CDC assay against Daudi cells; format: cell-based; conditions: CD20-expressing cells, data not shown
Description: ADCC is one recognized way through which a monoclonal antibody can confer its anti-tumor efficacy in vivo. […] 2C2-YTE was tested in CDC assays using human serum as a source of complement.

| Compound | HRG ligand-dependent signaling (HER3, pHER3, pAKT) [1] | Anti-tumor efficacy [3] | further results |
| --- | --- | --- | --- |
| COc1cc2ncnc(Nc3ccc(F)c(Cl)c3)c2cc1OCCCN1CCOCC1 [gefitinib] | no effect | – | – |
| CS(=O)(=O)CCNCc1ccc(-c2ccc3ncnc(Nc4ccc(OCc5cccc(F)c5)c(Cl)c4)c3c2)o1 [lapatinib] | – | showed anti-tumor efficacy | Anti-tumor efficacy [2]: tumor stasis |
| CC(=O)O[C@H]1C(=O)[C@@]2(C)[C@H]([C@H](OC(=O)c3ccccc3)[C@]3(O)C[C@H](OC(=O)[C@H](O)[C@@H](NC(=O)c4ccccc4)c4ccccc4)C(C)=C1C3(C)C)[C@]1(OC(C)=O)CO[C@@H]1C[C@@H]2O [paclitaxel] | – | – | Anti-tumor efficacy [4]: clear anti-tumor efficacy |
| pertuzumab [rhuMAb 2C4] | inhibit HRG ligand-dependent signaling | showed anti-tumor efficacy | – |
| rituximab [reference compound] | – | – | CDC activity [5]: None of the antibodies including 2C2-YTE showed any detectable CDC activity; CDC activity [6]: substantial cell-kill activity |
